Measurements as given in ChEMBL document CHEMBL5046278, “Synthesis and Evaluation of Novel Tetrahydronaphthyridine CXCR4 Antagonists with Improved Drug-like Profiles” (J Med Chem, 2022).
pIC50: −log10 of the molar value.

Biological target: T1, Muscarinic acetylcholine receptor M2 (Homo sapiens, UniProt P08172)
T1 sequence (P08172 whole entry): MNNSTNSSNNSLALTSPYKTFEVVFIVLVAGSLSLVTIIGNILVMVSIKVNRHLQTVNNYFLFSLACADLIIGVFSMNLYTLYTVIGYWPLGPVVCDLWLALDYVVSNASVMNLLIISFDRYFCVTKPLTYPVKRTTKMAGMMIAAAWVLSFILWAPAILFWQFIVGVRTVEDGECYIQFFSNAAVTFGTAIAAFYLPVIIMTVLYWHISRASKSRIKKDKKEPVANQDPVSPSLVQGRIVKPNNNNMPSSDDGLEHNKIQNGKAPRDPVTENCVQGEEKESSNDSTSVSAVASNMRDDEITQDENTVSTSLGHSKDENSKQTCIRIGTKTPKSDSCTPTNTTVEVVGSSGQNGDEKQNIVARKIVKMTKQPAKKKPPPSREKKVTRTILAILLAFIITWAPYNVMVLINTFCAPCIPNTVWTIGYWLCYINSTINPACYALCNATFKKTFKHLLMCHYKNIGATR
Assay: Inhibition of M2 mAChR receptor (unknown origin)

For CN(CCCCN(C[C@H]1Cc2ncccc2CN1)[C@H]1CCCc2cccnc21)C1CCC(F)(F)CC1, the pIC50 was less than 4.52.
